The structures appear in SMILES notation.

This assay addresses T1, hNPRA (Homo sapiens, UniProt P16066).
T1 construct: expressed in transfected cells
T1 sequence (P16066 33-1061): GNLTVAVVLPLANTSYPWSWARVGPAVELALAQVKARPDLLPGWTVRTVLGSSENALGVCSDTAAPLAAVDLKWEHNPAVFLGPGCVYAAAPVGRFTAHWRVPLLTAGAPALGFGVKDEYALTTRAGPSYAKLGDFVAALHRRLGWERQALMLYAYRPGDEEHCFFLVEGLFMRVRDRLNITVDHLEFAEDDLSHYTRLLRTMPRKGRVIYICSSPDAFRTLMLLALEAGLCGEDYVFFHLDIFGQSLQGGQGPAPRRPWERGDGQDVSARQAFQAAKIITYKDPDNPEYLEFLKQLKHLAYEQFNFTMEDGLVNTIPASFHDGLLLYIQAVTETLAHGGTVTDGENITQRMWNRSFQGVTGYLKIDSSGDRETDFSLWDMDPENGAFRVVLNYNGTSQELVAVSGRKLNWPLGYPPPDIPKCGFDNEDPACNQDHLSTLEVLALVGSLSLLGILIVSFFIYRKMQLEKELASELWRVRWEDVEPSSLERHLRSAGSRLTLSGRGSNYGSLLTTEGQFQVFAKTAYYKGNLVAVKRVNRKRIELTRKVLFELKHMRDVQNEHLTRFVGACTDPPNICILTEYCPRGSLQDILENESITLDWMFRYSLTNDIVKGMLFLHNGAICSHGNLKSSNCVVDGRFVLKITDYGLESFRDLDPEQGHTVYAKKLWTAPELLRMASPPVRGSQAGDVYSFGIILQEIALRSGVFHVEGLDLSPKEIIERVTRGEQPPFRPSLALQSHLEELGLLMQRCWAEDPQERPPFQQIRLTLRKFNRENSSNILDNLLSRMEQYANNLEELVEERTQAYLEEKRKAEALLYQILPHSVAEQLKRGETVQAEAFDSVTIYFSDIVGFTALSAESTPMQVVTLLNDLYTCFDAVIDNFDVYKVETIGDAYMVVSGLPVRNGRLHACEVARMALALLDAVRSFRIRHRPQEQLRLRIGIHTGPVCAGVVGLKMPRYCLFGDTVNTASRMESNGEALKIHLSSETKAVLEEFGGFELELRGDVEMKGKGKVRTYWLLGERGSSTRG
Description: NPRA Functional Cell Assay (cGMP HTRF, NPRA HEK JumpIn stable cells). Type of assay: cell-based. As to conditions: cGMP production, 1 hour at 37° C., 10-point dose response. Put shortly: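 cGMP HTRF read-out after 1 hour compound treatment at 37° C. of human NPRA-expressing HEK JumpIn cells, 1500 cells/well, in buffer with phosphodiesterase inhibitors IBMX and RO20 (100 uM each). Signal converted to [cGMP] by calibration curve; EC50s fitted by 4-parameter logistic; 50 nM h-ANP as positive response.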
For orientation: TR-FRET usually uses a lanthanide donor and a delayed reading to cut background.
The compound `CN(C)CC[C@@H](NC(=O)c1nc2cc3c(nc2s1)CC[C@H](C(C)(C)C)C3)c1cccc(C(=O)N[C@H]2CCN(C)C2)c1` (racemic) [Example 87, rac-(7S)-7-tert-butyl-N-[rac-(1R)-3-(dimethyl-amino)-1-[3-[rac-(3S)-1-methylpyrrolidin-3-yl]carbamoyl]phenyl]propyl]-5,6,7,8-tetrahydrothiazolo[5,4-b] quinoline-2-carboxamide] had an EC50 of 0.207 µM. Under `CN(C)CC[C@@H](NC(=O)c1nc2cc3c(nc2s1)CC[C@H](C(C)(C)C)C3)c1cccc(C(=O)NCC2CCN(C)C2)c1` (mixture of isomers) [Example 88, rac-(7S)-7-tert-butyl-N-[rac-(1R)-3-(dimethylamino)-1-[3-[(1-methylpyrrolidin-3-yl)methylcarbamoyl]phenyl]propyl]-5,6,7,8-tetrahydrothiazolo[5,4-b] quinoline-2-carboxamide] stands 0.23 µM; under `CN(C)CC[C@@H](NC(=O)c1nc2cc3c(nc2s1)CC[C@H](C(C)(C)C)C3)c1cccc(C(=O)N[C@H]2CCNC2)c1` (racemic) [Example 89, rac-(7S)-7-tert-butyl-N-[rac-(1R)-3-(dimethylamino)-1-[3-[rac-(3S)-pyrrolidin-3-yl]carbamoyl]phenyl] propyl]-5,6,7,8-tetrahydrothiazolo[5,4-b] quinoline-2-carboxamide], 0.23 µM; under `CN(C)CC[C@@H](NC(=O)c1nc2cc3c(nc2s1)CC[C@H](C(C)(C)C)C3)c1cccc(C(=O)N[C@@H]2CNC[C@H]2O)c1` (racemic) [Example 90, rac-(7S)-7-tert-butyl-N-[rac-(1R)-3-(dimethylamino)-1-[3-[[rac-(3R,4R)-4-hydroxypyrrolidin-3-yl]carbamoyl]phenyl]propyl]-5,6,7,8-tetrahydrothiazolo[5,4-b] quinoline-2-carboxamide], 0.271 µM. The value for `CN(C)CC[C@@H](NC(=O)c1nc2cc3c(nc2s1)CC[C@H](C(C)(C)C)C3)c1cccc(C(=O)N2CC3(CNC3)C2)c1` (racemic) [Example 91, rac-(7S)-7-tert-butyl-N-[rac-(1R)-1-[3-(2,6-diazaspiro[3.3]heptane-2-carbonyl)phenyl]-3-(dimethylamino)propyl]-5,6,7,8-tetrahydrothiazolo [5,4-b]quinoline-2-carboxamide] was 0.292 µM; that for `CN(C)CC[C@@H](NC(=O)c1nc2cc3c(nc2s1)CC[C@H](C(C)(C)C)C3)c1cccc(C(=O)NCCN)c1` (racemic) [Example 92, rac-(7S)-7-tert-butyl-N-[rac-(1R)-1-[3-(2-aminoethylcarbamoyl)phenyl]-3-(dimethyl-amino)propyl]-5,6,7,8-tetrahydrothiazolo[5,4-b] quinoline-2-carboxamide] was 0.348 µM. Regarding `CN(C)CC[C@@H](NC(=O)c1nc2cc3c(nc2s1)CC[C@H](C(C)(C)C)C3)c1cccc(C(=O)N2CC(C)(O)C2)c1` (racemic) [Example 93, rac-(7S)-7-tert-butyl-N-[rac-(1R)-3-(dimethylamino)-1-[3-(3-hydroxy-3-methyl-azetidine-1-carbonyl)phenyl]propyl]-5,6,7,8-tetrahydrothiazolo[5,4-b] quinoline-2-carboxamide], the half-maximal effective concentration (EC50) is 0.527 µM. In turn, `CN(C)CC[C@@H](NC(=O)c1nc2cc3c(nc2s1)CC[C@H](C(C)(C)C)C3)c1cccc(C(=O)N2CC(N)C2)c1` (racemic) [Example 94, rac-(7S)-7-tert-butyl-N-[rac-(1R)-1-[3-(3-aminoazetidine-1-carbonyl)phenyl]-3-(dimethylamino)propyl]-5,6,7,8-tetrahydrothiazolo [5,4-b]quinoline-2-carboxamide] yielded an EC50 of 0.566 µM.

Compound `CN(C)CC[C@@H](NC(=O)c1nc2cc3c(nc2s1)CC[C@H](C(C)(C)C)C3)c1cccc(C(=O)NCCO)c1` (racemic) [Example 95, rac-(7S)-7-tert-butyl-N-[rac-(1R)-3-(dimethylamino)-1-[3-(2-hydroxyethylcarbamoyl)phenyl]propyl]-5,6,7,8-tetrahydrothiazolo[5,4-b] quinoline-2-carboxamide] came in with an EC50 of 0.69 µM. For the compound `CN(C)CC[C@@H](NC(=O)c1nc2cc3c(nc2s1)CC[C@H](C(C)(C)C)C3)c1cccc(C(=O)N2CCOCC2)c1` (racemic) [Example 96, rac-(7S)-7-tert-butyl-N-[rac-(1R)-3-(dimethylamino)-1-[3-(morpholine-4-carbonyl)phenyl]propyl]-5,6,7,8-tetrahydrothiazolo[5,4-b] quinoline-2-carboxamide], a half-maximal response (EC50) required 1.02 µM. The value for `CN(C)CC[C@@H](NC(=O)c1nc2cc3c(nc2s1)CC[C@H](C(C)(C)C)C3)c1cccc(C(=O)N2CCNCC2)c1` (racemic) [Example 97, rac-(7S)-7-tert-butyl-N-[rac-(1R)-3-(dimethyl-amino)-1-[3-(piperazine-1-carbonyl)phenyl]propyl]-5,6,7,8-tetrahydrothiazolo[5,4-b] quinoline-2-carboxamide] was 1.39 µM; that for `CNC(=O)c1cccc([C@@H](CCN(C)C)NC(=O)c2nc3cc4c(nc3s2)CC[C@H](C(C)(C)C)C4)c1` (racemic) [Example 98, rac-(7S)-7-tert-butyl-N-[rac-(1R)-3-(dimethyl-amino)-1-[3-(methylcarbamoyl)phenyl]propyl]-5,6,7,8-tetrahydrothiazolo[5,4-b] quinoline-2-carboxamide] was 1.45 µM. For the compound `CN(C)CC[C@@H](NC(=O)c1nc2cc3c(nc2s1)CC[C@H](C(C)(C)C)C3)c1cccc(C(N)=O)c1` (racemic) [Example 99, rac-(7S)-7-tert-butyl-N-[rac-(1R)-1-(3-carbamoylphenyl)-3-(dimethylamino)propyl]-5,6,7,8-tetrahydrothiazolo[5,4-b] quinoline-2-carboxamide], a half-maximal response (EC50) required 1.83 µM. This EC50 and that of the compound before are within 1.5-fold of each other. For the compound `CN(C)CC[C@@H](NC(=O)c1nc2cc3c(nc2s1)CC[C@H](C(C)(C)C)C3)c1cccc(C(=O)NC2CCN(CC(F)(F)F)C2)c1` (mixture of isomers) [Example 100, rac-(7S)-7-tert-butyl-N-[rac-(1R)-3-(dimethyl-amino)-1-[3-[[1-(2,2,2-trifluoroethyl)pyrrolidin-3-yl]carbamoyl]phenyl]propyl]-5,6,7,8-tetrahydrothiazolo[5,4-b] quinoline-2-carboxamide], the EC50 was 2 µM. `CN1CC(NC(=O)c2cccc([C@@H](CCN3CCC(CC(=O)O)CC3)NC(=O)c3nc4cc5c(nc4s3)CC[C@H](C(C)(C)C)C5)c2)C1` (racemic) [Example 101, 2-[1-[rac-(3R)-3-[3-[(1-methylazetidin-1-ium-3-yl)carbamoyl]phenyl]-3-[[rac-(7S)-7-tert-butyl-5,6,7,8-tetrahydrothiazolo [5,4-b]quinoline-2-carbonyl]amino]propyl]-4-piperidyl]acetic acid; 2,2,2-trifluoroacetate] registered an EC50 of 0.146 µM. For `CN1CC(NC(=O)c2cccc([C@@H](CCN3CCC(CCO)CC3)NC(=O)c3nc4cc5c(nc4s3)CC[C@H](C(C)(C)C)C5)c2)C1` (racemic) [Example 102, rac-(7S)-7-tert-butyl-N-[rac-(1R)-3-[4-(2-hydroxyethyl)-1-piperidyl]-1-[3-[(1-methylazetidin-1-ium-3-yl)carbamoyl]phenyl]propyl]-5,6,7,8-tetrahydrothiazolo[5,4-b] quinoline-2-carboxamide; 2,2,2-trifluoroacetate], the EC50 was 0.158 µM. Turning to `CN1CC(NC(=O)c2cccc([C@@H](CCN3CCC(c4nnn[nH]4)CC3)NC(=O)c3nc4cc5c(nc4s3)CC[C@H](C(C)(C)C)C5)c2)C1` (racemic) [Example 103, rac-(7S)-7-tert-butyl-N-[rac-(1R)-1-[3-[(1-methylazetidin-1-ium-3-yl)carbamoyl]phenyl]-3-[4-(1H-tetrazol-5-yl)-1-piperidyl]propyl]-5,6,7,8-tetrahydrothiazolo[5,4-b] quinoline-2-carboxamide; 2,2,2-trifluoroacetate], it took 0.16 µM to reach a half-maximal effect (EC50). This EC50 and that of the compound before are within 1.5-fold of each other. As for `CN1CC(NC(=O)c2cccc([C@@H](CCN3CCC(CO)CC3)NC(=O)c3nc4cc5c(nc4s3)CC[C@H](C(C)(C)C)C5)c2)C1` (racemic) [Example 104, rac-(7S)-7-tert-butyl-N-[rac-(1R)-3-[4-(hydroxymethyl)-1-piperidyl]-1-[3-[(1-methylazetidin-1-ium-3-yl)carbamoyl]phenyl]propyl]-5,6,7,8-tetrahydrothiazolo[5,4-b] quinoline-2-carboxamide; 2,2,2-trifluoroacetate], the EC50 amounted to 0.186 µM.

What is called EC50 is the midpoint of the concentration-response curve. Read a high EC50 as a need for much substance.

The record behind these values is patent publication US12440496B2, “Natriuretic peptide receptor a agonists useful for the treatment of cardiometabolic diseases, kidney disease and diabetes” (Merck Sharp & Dohme LLC, priority 2019, dated 2025).
